Experimental data reported in ChEMBL document CHEMBL3085714 (J Med Chem, 2013).

Experiments:
Homo sapiens [1] = species on record: Homo sapiens; assay: Selectivity for p38alpha MAP kinase (unknown origin) over Aurora-B (unknown origin)
Homo sapiens [2] = species on record: Homo sapiens; assay: Selectivity for p38alpha MAP kinase (unknown origin) over SNF1LK2 (unknown origin)
Homo sapiens [3] = species on record: Homo sapiens; assay: Selectivity for p38alpha MAP kinase (unknown origin) over PDGFR-beta (unknown origin)
Homo sapiens [4] = species on record: Homo sapiens; assay: Selectivity for p38alpha MAP kinase (unknown origin) over PKC-beta2 (unknown origin)
Homo sapiens [5] = species on record: Homo sapiens; assay: Selectivity for p38alpha MAP kinase (unknown origin) over EPHA8 (unknown origin)
[6] = molecular target: T1, Mitogen-activated protein kinase 14 (Homo sapiens, UniProt Q16539); assay: Inhibition of p38alpha MAP kinase in human whole blood assessed as inhibition of LPS-induced TNFalpha release by ELISA
T1 sequence (Q16539 whole entry): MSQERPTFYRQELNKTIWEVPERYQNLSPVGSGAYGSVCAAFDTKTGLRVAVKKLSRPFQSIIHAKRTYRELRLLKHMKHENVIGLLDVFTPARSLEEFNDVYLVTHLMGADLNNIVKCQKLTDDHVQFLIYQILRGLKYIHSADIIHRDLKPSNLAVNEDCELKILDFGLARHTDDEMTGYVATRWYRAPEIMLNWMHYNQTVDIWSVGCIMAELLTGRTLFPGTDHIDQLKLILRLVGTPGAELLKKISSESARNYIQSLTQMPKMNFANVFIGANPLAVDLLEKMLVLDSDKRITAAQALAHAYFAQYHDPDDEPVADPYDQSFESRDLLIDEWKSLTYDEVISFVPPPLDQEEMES

Homo sapiens [7] = species on record: Homo sapiens; assay: Selectivity for p38alpha MAP kinase (unknown origin) over IKK-alpha (unknown origin)
Homo sapiens [8] = species on record: Homo sapiens; assay: Selectivity for p38alpha MAP kinase (unknown origin) over GRK4 (unknown origin)
Homo sapiens [9] = species on record: Homo sapiens; assay: Selectivity for p38alpha MAP kinase (unknown origin) over VEGF-R1 (unknown origin)
Homo sapiens [10] = species on record: Homo sapiens; assay: Selectivity for p38alpha MAP kinase (unknown origin) over VEGF-R3 (unknown origin)
Homo sapiens [11] = species on record: Homo sapiens; assay: Selectivity for p38alpha MAP kinase (unknown origin) over ROCK2 (unknown origin)
Homo sapiens [12] = species on record: Homo sapiens; assay: Selectivity for p38alpha MAP kinase (unknown origin) over STK23 (unknown origin)
[13] = molecular target: Mitogen-activated protein kinase 11 (Homo sapiens) (UniProt Q15759); assay: Inhibition of p38beta MAP kinase (unknown origin) at 10 uM
Mitogen-activated protein kinase 11 (Homo sapiens), sequence (Q15759 whole entry): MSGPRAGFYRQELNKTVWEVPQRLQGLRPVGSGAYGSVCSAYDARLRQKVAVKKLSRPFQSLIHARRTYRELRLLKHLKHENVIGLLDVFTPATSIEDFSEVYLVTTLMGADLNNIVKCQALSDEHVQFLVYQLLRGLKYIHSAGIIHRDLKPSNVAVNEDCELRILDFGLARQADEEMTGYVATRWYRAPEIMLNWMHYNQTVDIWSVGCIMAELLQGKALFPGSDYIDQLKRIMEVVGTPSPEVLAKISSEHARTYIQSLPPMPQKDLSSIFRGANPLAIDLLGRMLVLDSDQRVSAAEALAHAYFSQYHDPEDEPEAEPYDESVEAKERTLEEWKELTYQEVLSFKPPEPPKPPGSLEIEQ

Homo sapiens [14] = species on record: Homo sapiens; assay: Selectivity for p38alpha MAP kinase (unknown origin) over EPHA1 (unknown origin)
Homo sapiens [15] = species on record: Homo sapiens; assay: Selectivity for p38alpha MAP kinase (unknown origin) over JNK3 (unknown origin)
Homo sapiens [16] = species on record: Homo sapiens; assay: Selectivity for p38alpha MAP kinase (unknown origin) over HCK (unknown origin)
Homo sapiens [17] = species on record: Homo sapiens; assay: Selectivity for p38alpha MAP kinase (unknown origin) over EGFR G719S mutant (unknown origin)
Homo sapiens [18] = species on record: Homo sapiens; assay: Selectivity for p38alpha MAP kinase (unknown origin) over ERBB4 (unknown origin)
Homo sapiens [19] = species on record: Homo sapiens; assay: Selectivity for p38alpha MAP kinase (unknown origin) over IGF1-R (unknown origin)
Homo sapiens [20] = species on record: Homo sapiens; assay: Selectivity for p38alpha MAP kinase (unknown origin) over JAK3 (unknown origin)
Homo sapiens [21] = species on record: Homo sapiens; assay: Selectivity for p38alpha MAP kinase (unknown origin) over FER (unknown origin)
Homo sapiens [22] = species on record: Homo sapiens; assay: Selectivity for p38alpha MAP kinase (unknown origin) over LCK (unknown origin)
Homo sapiens [23] = species on record: Homo sapiens; assay: Selectivity for p38alpha MAP kinase (unknown origin) over MEK2 (unknown origin)
Homo sapiens [24] = species on record: Homo sapiens; assay: Selectivity for p38alpha MAP kinase (unknown origin) over PKC-zeta (unknown origin)
Homo sapiens [25] = species on record: Homo sapiens; assay: Selectivity for p38alpha MAP kinase (unknown origin) over SNK (unknown origin)
Homo sapiens [26] = species on record: Homo sapiens; assay: Selectivity for p38alpha MAP kinase (unknown origin) over SGK1 (unknown origin)
Homo sapiens [27] = species on record: Homo sapiens; assay: Selectivity for p38alpha MAP kinase (unknown origin) over FGR (unknown origin)
Homo sapiens [28] = species on record: Homo sapiens; assay: Selectivity for p38alpha MAP kinase (unknown origin) over CLK1 (unknown origin)
Homo sapiens [29] = species on record: Homo sapiens; assay: Selectivity for p38alpha MAP kinase (unknown origin) over BTK (unknown origin)
Homo sapiens [30] = species on record: Homo sapiens; assay: Selectivity for p38alpha MAP kinase (unknown origin) over DYRK1B (unknown origin)
Homo sapiens [31] = species on record: Homo sapiens; assay: Selectivity for p38alpha MAP kinase (unknown origin) over TGFB-R2 (unknown origin)
Homo sapiens [32] = species on record: Homo sapiens; assay: Selectivity for p38alpha MAP kinase (unknown origin) over TIE2 (unknown origin)
Homo sapiens [33] = species on record: Homo sapiens; assay: Selectivity for p38alpha MAP kinase (unknown origin) over MET Y1230A mutant (unknown origin)
Homo sapiens [34] = species on record: Homo sapiens; assay: Selectivity for p38alpha MAP kinase (unknown origin) over BMPR1A (unknown origin)
Homo sapiens [35] = species on record: Homo sapiens; assay: Selectivity for p38alpha MAP kinase (unknown origin) over MEK1 (unknown origin)
Homo sapiens [36] = species on record: Homo sapiens; assay: Selectivity for p38alpha MAP kinase (unknown origin) over PDGFR-alpha D842V mutant (unknown origin)
Homo sapiens [37] = species on record: Homo sapiens; assay: Selectivity for p38alpha MAP kinase (unknown origin) over PAK2 (unknown origin)
Homo sapiens [38] = species on record: Homo sapiens; assay: Selectivity for p38alpha MAP kinase (unknown origin) over ROS (unknown origin)
Homo sapiens [39] = species on record: Homo sapiens; assay: Selectivity for p38alpha MAP kinase (unknown origin) over EGFR G719C mutant (unknown origin)
Homo sapiens [40] = species on record: Homo sapiens; assay: Selectivity for p38alpha MAP kinase (unknown origin) over CDK1/CycB1 (unknown origin)
Homo sapiens [41] = species on record: Homo sapiens; assay: Selectivity for p38alpha MAP kinase (unknown origin) over ARK5 (unknown origin)
[42] = molecular target: Calcium/calmodulin-dependent protein kinase type II subunit delta (Homo sapiens) (UniProt Q13557); assay: Inhibition of CAMK2D (unknown origin) at 10 uM
Calcium/calmodulin-dependent protein kinase type II subunit delta (Homo sapiens), sequence (Q13557 whole entry): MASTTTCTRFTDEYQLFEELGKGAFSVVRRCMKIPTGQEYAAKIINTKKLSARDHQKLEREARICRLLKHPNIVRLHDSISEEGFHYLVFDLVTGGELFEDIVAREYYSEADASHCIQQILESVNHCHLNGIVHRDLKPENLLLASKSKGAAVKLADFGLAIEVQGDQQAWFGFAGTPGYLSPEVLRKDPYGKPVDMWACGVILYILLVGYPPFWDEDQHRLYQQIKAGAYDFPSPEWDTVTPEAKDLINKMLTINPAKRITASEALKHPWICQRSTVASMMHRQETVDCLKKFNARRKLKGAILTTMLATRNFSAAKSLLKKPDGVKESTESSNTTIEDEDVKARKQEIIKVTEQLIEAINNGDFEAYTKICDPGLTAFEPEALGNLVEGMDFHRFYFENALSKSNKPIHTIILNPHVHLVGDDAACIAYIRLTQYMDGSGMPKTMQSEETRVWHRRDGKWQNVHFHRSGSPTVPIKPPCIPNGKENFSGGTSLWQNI

Homo sapiens [43] = species on record: Homo sapiens; assay: Selectivity for p38alpha MAP kinase (unknown origin) over ZAK (unknown origin)
[44] = molecular target: T1, Mitogen-activated protein kinase 14; assay: Competitive inhibition of p38alpha MAP kinase (unknown origin) at 10 uM in presence of 100 uM ATP
Homo sapiens [45] = species on record: Homo sapiens; assay: Selectivity for p38alpha MAP kinase (unknown origin) over EPHB2 (unknown origin)
Homo sapiens [46] = species on record: Homo sapiens; assay: Selectivity for p38alpha MAP kinase (unknown origin) over ACK1 (unknown origin)
Homo sapiens [47] = species on record: Homo sapiens; assay: Selectivity for p38alpha MAP kinase (unknown origin) over EGFR 747 to 752 deletion/P753S mutant (unknown origin)
Homo sapiens [48] = species on record: Homo sapiens; assay: Selectivity for p38alpha MAP kinase (unknown origin) over DNA-PK (unknown origin)
Homo sapiens [49] = species on record: Homo sapiens; assay: Selectivity for p38alpha MAP kinase (unknown origin) over MET F1200I mutant (unknown origin)
Homo sapiens [50] = species on record: Homo sapiens; assay: Selectivity for p38alpha MAP kinase (unknown origin) over PCTAIRE1 (unknown origin)
[51] = molecular target: T1, Mitogen-activated protein kinase 14; assay: Competitive inhibition of p38alpha MAP kinase (unknown origin) in presence of 100 uM ATP
Homo sapiens [52] = species on record: Homo sapiens; assay: Selectivity for p38alpha MAP kinase (unknown origin) over MET D1228H mutant (unknown origin)
Homo sapiens [53] = species on record: Homo sapiens; assay: Selectivity for p38alpha MAP kinase (unknown origin) over SGK3 (unknown origin)
Homo sapiens [54] = species on record: Homo sapiens; assay: Selectivity for p38alpha MAP kinase (unknown origin) over wild type FGFR1 (unknown origin)
Homo sapiens [55] = species on record: Homo sapiens; assay: Selectivity for p38alpha MAP kinase (unknown origin) over EPHB1 (unknown origin)
Homo sapiens [56] = species on record: Homo sapiens; assay: Selectivity for p38alpha MAP kinase (unknown origin) over PKC-beta1 (unknown origin)
Homo sapiens [57] = species on record: Homo sapiens; assay: Selectivity for p38alpha MAP kinase (unknown origin) over FGF-R2 (unknown origin)
Homo sapiens [58] = species on record: Homo sapiens; assay: Selectivity for p38alpha MAP kinase (unknown origin) over EGFR T790M mutant (unknown origin)
Homo sapiens [59] = species on record: Homo sapiens; assay: Selectivity for p38alpha MAP kinase (unknown origin) over PKC-iota (unknown origin)
Homo sapiens [60] = species on record: Homo sapiens; assay: Selectivity for p38alpha MAP kinase (unknown origin) over PAK1 (unknown origin)
Homo sapiens [61] = species on record: Homo sapiens; assay: Selectivity for p38alpha MAP kinase (unknown origin) over CDC42BPB (unknown origin)

Molecule `Cc1cc(F)c(NC(=O)c2ccsc2)cc1Nc1ccc2c(c1)OCc1ccc(OC[C@H](O)CO)cc1C2=O` has a Selectivity ratio (Homo sapiens [1]) of over 1000, a Selectivity ratio (Homo sapiens [2]) of over 1000 and a Selectivity ratio (Homo sapiens [3]) of over 1000. It also gave a Selectivity ratio (Homo sapiens [4]) of over 1000, a Selectivity ratio (Homo sapiens [5]) of over 1000 and an IC50 [6] of 125 nM. It also gave a Selectivity ratio (Homo sapiens [7]) of over 1000, a Selectivity ratio (Homo sapiens [8]) of over 1000 and a Selectivity ratio (Homo sapiens [9]) of over 1000. For the same molecule, the Selectivity ratio (Homo sapiens [10]) was over 1000, the Selectivity ratio (Homo sapiens [11]) was over 1000 and the Selectivity ratio (Homo sapiens [12]) was over 1000. For the same molecule, the inhibition [13] was over 50%, the Selectivity ratio (Homo sapiens [14]) was over 1000 and the Selectivity ratio (Homo sapiens [15]) was over 1000. The Selectivity ratio (Homo sapiens [16]) was over 1000, the Selectivity ratio (Homo sapiens [17]) was over 1000 and the Selectivity ratio (Homo sapiens [18]) was over 1000. It also gave a Selectivity ratio (Homo sapiens [19]) of over 1000, a Selectivity ratio (Homo sapiens [20]) of over 1000 and a Selectivity ratio (Homo sapiens [21]) of over 1000. The Selectivity ratio (Homo sapiens [22]) was over 1000, the Selectivity ratio (Homo sapiens [23]) was over 1000 and the Selectivity ratio (Homo sapiens [24]) was over 1000. It also gave a Selectivity ratio (Homo sapiens [25]) of over 1000, a Selectivity ratio (Homo sapiens [26]) of over 1000 and a Selectivity ratio (Homo sapiens [27]) of over 1000. It also gave a Selectivity ratio (Homo sapiens [28]) of over 1000, a Selectivity ratio (Homo sapiens [29]) of over 1000 and a Selectivity ratio (Homo sapiens [30]) of over 1000. It also gave a Selectivity ratio (Homo sapiens [31]) of over 1000, a Selectivity ratio (Homo sapiens [32]) of over 1000 and a Selectivity ratio (Homo sapiens [33]) of over 1000. It also gave a Selectivity ratio (Homo sapiens [34]) of over 1000, a Selectivity ratio (Homo sapiens [35]) of over 1000 and a Selectivity ratio (Homo sapiens [36]) of over 1000. The Selectivity ratio (Homo sapiens [37]) was over 1000, the Selectivity ratio (Homo sapiens [38]) was over 1000 and the Selectivity ratio (Homo sapiens [39]) was over 1000. For the same molecule, the Selectivity ratio (Homo sapiens [40]) was over 1000, the Selectivity ratio (Homo sapiens [41]) was over 1000 and the inhibition [42] was over 50%. It also gave a Selectivity ratio (Homo sapiens [43]) of over 1000, an inhibition [44] of over 50% and a Selectivity ratio (Homo sapiens [45]) of over 1000. For the same molecule, the Selectivity ratio (Homo sapiens [46]) was over 1000, the Selectivity ratio (Homo sapiens [47]) was over 1000 and the Selectivity ratio (Homo sapiens [48]) was over 1000. The Selectivity ratio (Homo sapiens [49]) was over 1000, the Selectivity ratio (Homo sapiens [50]) was over 1000 and the IC50 [51] was 1.6 nM. For the same molecule, the Selectivity ratio (Homo sapiens [52]) was over 1000, the Selectivity ratio (Homo sapiens [53]) was over 1000 and the Selectivity ratio (Homo sapiens [54]) was over 1000. For the same molecule, the Selectivity ratio (Homo sapiens [55]) was over 1000, the Selectivity ratio (Homo sapiens [56]) was over 1000 and the Selectivity ratio (Homo sapiens [57]) was over 1000. It also gave a Selectivity ratio (Homo sapiens [58]) of over 1000, a Selectivity ratio (Homo sapiens [59]) of over 1000 and a Selectivity ratio (Homo sapiens [60]) of over 1000. For the same molecule, the Selectivity ratio (Homo sapiens [61]) was over 1000.
